The supplement of paper PMC4862054
Values joined by “and” are separate entries in the source; they are usually repeats but may differ in a detail not shown here. Identical values can stand only once.

What follows are compounds tested on CAL-148 (assay: normalised viability (% of control), CellTiter-Blue; higher = more viable cells (about 100 = DMSO control)). Details: 30 nM; incubation time: 72 h.
Procedure, shortened: (§1)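 Breast cancer cell lines in 20 µl suspension were seeded onto 384-well plates pre-loaded with compound dissolved in 5 µl medium, then incubated 72 h. CellTiter-Blue reagent (2.5 µl) was added for 2 h at 37 °C and fluorescence read at 560/590 nm. Each plate was normalised to vehicle (100) and a positive kill control (0), with Z'-factor quality control. The value is normalised viability at one listed concentration of the series.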

First: COc1cc2nccc(Oc3ccc(NC(=O)Nc4cc(C)on4)c(Cl)c3)c2cc1OC [Tivozanib]
Second: C=CC(=O)Nc1cc2c(Nc3ccc(F)c(Cl)c3)ncnc2cc1OCCCN1CCOCC1 [Canertinib]
The normalised viability of the first is higher: 96.6% for the first, 88.8% for the second.

Compared with `O=C(Cc1ccc(-c2ccc(OCCN3CCOCC3)cc2)cn1)NCc1ccccc1` [KX2-391], `Nc1ccccc1NC(=O)c1ccc(CNC(=O)OCc2cccnc2)cc1` [Entinostat] is lower in normalised viability: 91.3% for the first, 84.9% for the second.

With `CC[C@H](Nc1ncnc2[nH]cnc12)c1nc2cccc(F)c2c(=O)n1-c1ccccc1` [CAL-101] the normalised viability was 92.1%.

Same assay, conditions: 100 nM; incubation time: 72 h

With `Nc1ncn([C@H]2C[C@H](O)[C@@H](CO)O2)c(=O)n1` [Decitabine] the normalised viability was 86.2% and 96.3%.

Going from `CCN(CC)CCCC(C)Nc1c2ccc(Cl)cc2nc2ccc(OC)cc12` (stereo not given) [Mepacrine] to `COc1cc2nccc(Oc3ccc(NC(=O)Nc4cc(C)on4)c(Cl)c3)c2cc1OC` [Tivozanib], the normalised viability falls from 102% to 91.8%.

First: Nc1nc2[nH]cc(CCc3ccc(C(=O)N[C@@H](CCC(=O)O)C(=O)O)cc3)c2c(=O)[nH]1 [Pemetrexed]
Second: Nc1ccccc1NC(=O)c1ccc(CNC(=O)OCc2cccnc2)cc1 [Entinostat]
The normalised viability of the first is higher: 106% for the first, 86.7% for the second.

Going from `COc1cc([C@@H]2c3cc4c(cc3[C@@H](O[C@@H]3O[C@@H]5CO[C@@H](c6cccs6)O[C@H]5[C@H](O)[C@H]3O)[C@H]3COC(=O)[C@H]23)OCO4)cc(OC)c1O` [Teniposide] to `C=CC(=O)Nc1cc2c(Nc3ccc(F)c(Cl)c3)ncnc2cc1OCCCN1CCOCC1` [Canertinib], the normalised viability rises from 61% to 75.6%.

Compared with `O=C(Cc1ccc(-c2ccc(OCCN3CCOCC3)cc2)cn1)NCc1ccccc1` [KX2-391], `CC[C@H](Nc1ncnc2[nH]cnc12)c1nc2cccc(F)c2c(=O)n1-c1ccccc1` [CAL-101] is higher in normalised viability: 16.8% for the first, 88.5% for the second.

These compounds were tested on CAL-51 in the same assay as above. Details: 0.075 nM; incubation time: 72 h.
Procedure, shortened: as §1

Compound `CC(=O)Nc1cccc(-n2c(=O)n(C3CC3)c(=O)c3c(Nc4ccc(I)cc4F)n(C)c(=O)c(C)c32)c1` has a normalised viability of 103%.

Same assay, conditions: 0.297 nM; incubation time: 72 h

For `CCN(CC)CCCC(C)Nc1c2ccc(Cl)cc2nc2ccc(OC)cc12` (stereo not given) [Mepacrine], the normalised viability was 89.1%.

Same assay, conditions: 0.3 nM; incubation time: 72 h

First: O=C(/C=C/c1cccnc1)NCCCCC1CCN(C(=O)c2ccccc2)CC1 [FK-866]
Second: CC[C@@H]1C(=O)N(C)c2cnc(Nc3ccc(C(=O)NC4CCN(C)CC4)cc3OC)nc2N1C1CCCC1 [BI 2536]
The normalised viability of the first is higher: 113% for the first, 99.2% for the second.

Same assay, conditions: 0.75 nM; incubation time: 72 h

`CC(=O)Nc1cccc(-n2c(=O)n(C3CC3)c(=O)c3c(Nc4ccc(I)cc4F)n(C)c(=O)c(C)c32)c1` showed a normalised viability of 89.4%.

Same assay, conditions: 2.5 nM; incubation time: 72 h

In the case of `CC(=O)Nc1cccc(-n2c(=O)n(C3CC3)c(=O)c3c(Nc4ccc(I)cc4F)n(C)c(=O)c(C)c32)c1`, the normalised viability is reported as 84.4%.

Same assay, conditions: 2.97 nM; incubation time: 72 h

Work on `CCN(CC)CCCC(C)Nc1c2ccc(Cl)cc2nc2ccc(OC)cc12` (stereo not given) [Mepacrine] yielded a normalised viability of 91.4%.

Same assay, conditions: 3 nM; incubation time: 72 h

`Nc1ncn([C@H]2C[C@H](O)[C@@H](CO)O2)c(=O)n1` [Decitabine] was tested, and the normalised viability was 116% and 108%.

Going from `O=C(/C=C/c1cccnc1)NCCCCC1CCN(C(=O)c2ccccc2)CC1` [FK-866] to `Nc1ccccc1NC(=O)c1ccc(CNC(=O)OCc2cccnc2)cc1` [Entinostat], the normalised viability rises from 95.5% to 116%.

Going from `CC[C@@H]1C(=O)N(C)c2cnc(Nc3ccc(C(=O)NC4CCN(C)CC4)cc3OC)nc2N1C1CCCC1` [BI 2536] to `C=CC(=O)Nc1cc2c(Nc3ccc(F)c(Cl)c3)ncnc2cc1OCCCN1CCOCC1` [Canertinib], the normalised viability rises from 90.5% to 110%.

Compared with `CCN(CC)CCCC(C)Nc1c2ccc(Cl)cc2nc2ccc(OC)cc12` (stereo not given) [Mepacrine], `COc1cc2nccc(Oc3ccc(NC(=O)Nc4cc(C)on4)c(Cl)c3)c2cc1OC` [Tivozanib] is lower in normalised viability: 105% for the first, 100% for the second.

Compared with `Nc1nc2[nH]cc(CCc3ccc(C(=O)N[C@@H](CCC(=O)O)C(=O)O)cc3)c2c(=O)[nH]1` [Pemetrexed], `CC[C@H](Nc1ncnc2[nH]cnc12)c1nc2cccc(F)c2c(=O)n1-c1ccccc1` [CAL-101] is lower in normalised viability: 105% for the first, 93% for the second.

Going from `COc1cc([C@@H]2c3cc4c(cc3[C@@H](O[C@@H]3O[C@@H]5CO[C@@H](c6cccs6)O[C@H]5[C@H](O)[C@H]3O)[C@H]3COC(=O)[C@H]23)OCO4)cc(OC)c1O` [Teniposide] to `O=C(Cc1ccc(-c2ccc(OCCN3CCOCC3)cc2)cn1)NCc1ccccc1` [KX2-391], the normalised viability rises from 98.2% to 114%.

Same assay, conditions: 9.9 nM; incubation time: 72 h

In the case of `CCN(CC)CCCC(C)Nc1c2ccc(Cl)cc2nc2ccc(OC)cc12` (stereo not given) [Mepacrine], the normalised viability is reported as 96.2%.

Same assay, conditions: 10 nM; incubation time: 72 h

Going from `O=C(/C=C/c1cccnc1)NCCCCC1CCN(C(=O)c2ccccc2)CC1` [FK-866] to `CC[C@@H]1C(=O)N(C)c2cnc(Nc3ccc(C(=O)NC4CCN(C)CC4)cc3OC)nc2N1C1CCCC1` [BI 2536], the normalised viability falls from 72.8% to 63.9%.

Same assay, conditions: 30 nM; incubation time: 72 h

With `Nc1ncn([C@H]2C[C@H](O)[C@@H](CO)O2)c(=O)n1` [Decitabine] the normalised viability was 117% and 101%.

Compared with `CCN(CC)CCCC(C)Nc1c2ccc(Cl)cc2nc2ccc(OC)cc12` (stereo not given) [Mepacrine], `COc1cc2nccc(Oc3ccc(NC(=O)Nc4cc(C)on4)c(Cl)c3)c2cc1OC` [Tivozanib] is higher in normalised viability: 97.8% for the first, 103% for the second.

Going from `Nc1nc2[nH]cc(CCc3ccc(C(=O)N[C@@H](CCC(=O)O)C(=O)O)cc3)c2c(=O)[nH]1` [Pemetrexed] to `Nc1ccccc1NC(=O)c1ccc(CNC(=O)OCc2cccnc2)cc1` [Entinostat], the normalised viability rises from 100% to 106%.

Going from `COc1cc([C@@H]2c3cc4c(cc3[C@@H](O[C@@H]3O[C@@H]5CO[C@@H](c6cccs6)O[C@H]5[C@H](O)[C@H]3O)[C@H]3COC(=O)[C@H]23)OCO4)cc(OC)c1O` [Teniposide] to `C=CC(=O)Nc1cc2c(Nc3ccc(F)c(Cl)c3)ncnc2cc1OCCCN1CCOCC1` [Canertinib], the normalised viability rises from 78.2% to 105%.

Compared with `O=C(Cc1ccc(-c2ccc(OCCN3CCOCC3)cc2)cn1)NCc1ccccc1` [KX2-391], `CC[C@H](Nc1ncnc2[nH]cnc12)c1nc2cccc(F)c2c(=O)n1-c1ccccc1` [CAL-101] is lower in normalised viability: 105% for the first, 92% for the second.

Same assay, conditions: 100 nM; incubation time: 72 h

With `Nc1ncn([C@H]2C[C@H](O)[C@@H](CO)O2)c(=O)n1` [Decitabine] the normalised viability was 101% and 96.8%.

Compared with `CCN(CC)CCCC(C)Nc1c2ccc(Cl)cc2nc2ccc(OC)cc12` (stereo not given) [Mepacrine], `COc1cc2nccc(Oc3ccc(NC(=O)Nc4cc(C)on4)c(Cl)c3)c2cc1OC` [Tivozanib] is higher in normalised viability: 93.3% for the first, 96.3% for the second.

First: Nc1nc2[nH]cc(CCc3ccc(C(=O)N[C@@H](CCC(=O)O)C(=O)O)cc3)c2c(=O)[nH]1 [Pemetrexed]
Second: O=C(Cc1ccc(-c2ccc(OCCN3CCOCC3)cc2)cn1)NCc1ccccc1 [KX2-391]
The normalised viability of the first is higher: 107% for the first, 20% for the second.

`COc1cc([C@@H]2c3cc4c(cc3[C@@H](O[C@@H]3O[C@@H]5CO[C@@H](c6cccs6)O[C@H]5[C@H](O)[C@H]3O)[C@H]3COC(=O)[C@H]23)OCO4)cc(OC)c1O` [Teniposide] gave a normalised viability of 43.4%.
